Assay results: patent US7514448B2, “Azaindoles useful as inhibitors of rock and other protein kinases” (Vertex Pharmaceuticals Incorporated, priority 2004, dated 2009)

How the values were obtained:
Type in all cases: biochemical
[1] = target: T1, Itk (Homo sapiens, UniProt Q08881); experiment: Itk inhibition assay, coupled enzyme; settings: average Ki if more than one determined
T1 sequence (Q08881 1-620): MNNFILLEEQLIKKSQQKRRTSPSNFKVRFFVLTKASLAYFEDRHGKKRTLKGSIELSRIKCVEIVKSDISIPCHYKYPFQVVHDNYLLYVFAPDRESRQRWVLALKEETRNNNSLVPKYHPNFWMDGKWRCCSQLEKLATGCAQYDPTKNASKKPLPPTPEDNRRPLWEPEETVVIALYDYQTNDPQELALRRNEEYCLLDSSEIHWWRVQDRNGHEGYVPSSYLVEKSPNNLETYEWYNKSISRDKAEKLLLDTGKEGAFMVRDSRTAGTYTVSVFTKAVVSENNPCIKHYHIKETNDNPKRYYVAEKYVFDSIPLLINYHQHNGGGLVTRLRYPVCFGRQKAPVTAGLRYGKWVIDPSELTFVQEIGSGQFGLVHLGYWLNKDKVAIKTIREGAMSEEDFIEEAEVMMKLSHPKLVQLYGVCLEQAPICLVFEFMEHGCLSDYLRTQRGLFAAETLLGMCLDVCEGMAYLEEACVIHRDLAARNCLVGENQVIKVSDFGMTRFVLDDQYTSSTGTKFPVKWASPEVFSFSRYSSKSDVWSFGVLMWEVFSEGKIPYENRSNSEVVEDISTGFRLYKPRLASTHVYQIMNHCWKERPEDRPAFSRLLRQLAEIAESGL
Protocol: Compounds were screened for their ability to inhibit Itk using a standard coupled enzyme assay (Fox et al., Protein Sci., (1998) 7, 2249). Assays were carried out in a mixture of 20 mM MOPS (pH 7.0), 10 mM MgCl2, 0.1% BSA, 1 mM DTT, 2.5 mM phosphoenolpyruvate, 300 μM NADH, 30 μg/ml pyruvate kinase and 10 μg/ml lactate dehydrogenase. Final substrate concentrations in the assay were 100 μM ATP (Sigma Chemicals) and 3 μM peptide (Biotinylated SAM68 D332-443). Assays were carried out at 25° C. and in the presence of 100 nM Itk.
An assay stock buffer solution was prepared containing all of the reagents listed above, with the exception of ATP and the test compound of interest. 60 μl of the stock solution was placed in a 96 well plate followed by addition of 2 μl of DMSO stock containing serial dilutions of the test compound (typically starting from a final concentration of 15 μM). The plate was preincubated for 10 minutes at 25° C. and the reaction initiated by addition of 5 μl of ATP. Initial reaction rates were determined with a Molecular Devices SpectraMax Plus plate reader over a 10 minute time course. IC50 and Ki data were calculated from non-linear regression analysis using the Prism software package (GraphPad Prism version 3.0cx for Macintosh, GraphPad Software, San Diego Calif., USA).

[2] = target: PKA (Homo sapiens, UniProt P17612); experiment: PKA inhibition assay, coupled enzyme; settings: average Ki if more than one determined
Outline: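 Coupled PK/LDH assay following NADH depletion: 18 nM PKA, 50 μM ATP, 80 μM Kemptide in 100 mM HEPES pH 7.5, 10 mM MgCl2, 25 mM NaCl, 1 mM DTT, 3% DMSO, at 30 °C. Compound preincubated 10 min before ATP start; initial rates over 15 min, IC50 and Ki by non-linear regression.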

[3] = target: ROCK I (AA 6-553) (Homo sapiens, UniProt Q13464); experiment: ROCK inhibition assay, coupled enzyme system ("Enzyme"); settings: enzyme-linked assay; average Ki if more than one determined
Chain of ROCK I (AA 6-553) (Q13464 6-553, species assumed): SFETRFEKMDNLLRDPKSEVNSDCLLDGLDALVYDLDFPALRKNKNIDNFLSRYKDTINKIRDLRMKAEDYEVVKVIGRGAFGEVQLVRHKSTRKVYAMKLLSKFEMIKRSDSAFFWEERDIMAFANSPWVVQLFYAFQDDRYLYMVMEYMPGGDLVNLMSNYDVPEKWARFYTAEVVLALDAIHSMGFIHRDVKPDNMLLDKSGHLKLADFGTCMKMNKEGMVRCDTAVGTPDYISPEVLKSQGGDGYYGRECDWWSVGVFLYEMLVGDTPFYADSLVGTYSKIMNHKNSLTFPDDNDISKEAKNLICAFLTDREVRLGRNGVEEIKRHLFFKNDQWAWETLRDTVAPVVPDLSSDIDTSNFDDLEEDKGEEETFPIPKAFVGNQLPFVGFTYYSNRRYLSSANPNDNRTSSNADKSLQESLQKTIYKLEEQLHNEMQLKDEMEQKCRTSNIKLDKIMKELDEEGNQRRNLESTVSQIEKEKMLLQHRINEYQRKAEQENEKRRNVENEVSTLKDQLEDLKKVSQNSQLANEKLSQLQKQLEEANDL
Protocol: Reactions were carried out in a solution containing 100 mM HEPES (pH 7.5), 10 mM MgCl2, 25 mM NaCl, 2 mM DTT and 1.5% DMSO.
(§1) If more than one value of Ki has been determined, the average Ki is indicated. If no value is indicated, then the Ki was not determined.

[4] = target: ROCK (Homo sapiens, UniProt Q13464); experiment: ROCK radioactive assay ("33P"); settings: radioactive assay; average Ki if more than one determined; read-out: ROCK 33P Ki
Chain of ROCK (Q13464 whole entry): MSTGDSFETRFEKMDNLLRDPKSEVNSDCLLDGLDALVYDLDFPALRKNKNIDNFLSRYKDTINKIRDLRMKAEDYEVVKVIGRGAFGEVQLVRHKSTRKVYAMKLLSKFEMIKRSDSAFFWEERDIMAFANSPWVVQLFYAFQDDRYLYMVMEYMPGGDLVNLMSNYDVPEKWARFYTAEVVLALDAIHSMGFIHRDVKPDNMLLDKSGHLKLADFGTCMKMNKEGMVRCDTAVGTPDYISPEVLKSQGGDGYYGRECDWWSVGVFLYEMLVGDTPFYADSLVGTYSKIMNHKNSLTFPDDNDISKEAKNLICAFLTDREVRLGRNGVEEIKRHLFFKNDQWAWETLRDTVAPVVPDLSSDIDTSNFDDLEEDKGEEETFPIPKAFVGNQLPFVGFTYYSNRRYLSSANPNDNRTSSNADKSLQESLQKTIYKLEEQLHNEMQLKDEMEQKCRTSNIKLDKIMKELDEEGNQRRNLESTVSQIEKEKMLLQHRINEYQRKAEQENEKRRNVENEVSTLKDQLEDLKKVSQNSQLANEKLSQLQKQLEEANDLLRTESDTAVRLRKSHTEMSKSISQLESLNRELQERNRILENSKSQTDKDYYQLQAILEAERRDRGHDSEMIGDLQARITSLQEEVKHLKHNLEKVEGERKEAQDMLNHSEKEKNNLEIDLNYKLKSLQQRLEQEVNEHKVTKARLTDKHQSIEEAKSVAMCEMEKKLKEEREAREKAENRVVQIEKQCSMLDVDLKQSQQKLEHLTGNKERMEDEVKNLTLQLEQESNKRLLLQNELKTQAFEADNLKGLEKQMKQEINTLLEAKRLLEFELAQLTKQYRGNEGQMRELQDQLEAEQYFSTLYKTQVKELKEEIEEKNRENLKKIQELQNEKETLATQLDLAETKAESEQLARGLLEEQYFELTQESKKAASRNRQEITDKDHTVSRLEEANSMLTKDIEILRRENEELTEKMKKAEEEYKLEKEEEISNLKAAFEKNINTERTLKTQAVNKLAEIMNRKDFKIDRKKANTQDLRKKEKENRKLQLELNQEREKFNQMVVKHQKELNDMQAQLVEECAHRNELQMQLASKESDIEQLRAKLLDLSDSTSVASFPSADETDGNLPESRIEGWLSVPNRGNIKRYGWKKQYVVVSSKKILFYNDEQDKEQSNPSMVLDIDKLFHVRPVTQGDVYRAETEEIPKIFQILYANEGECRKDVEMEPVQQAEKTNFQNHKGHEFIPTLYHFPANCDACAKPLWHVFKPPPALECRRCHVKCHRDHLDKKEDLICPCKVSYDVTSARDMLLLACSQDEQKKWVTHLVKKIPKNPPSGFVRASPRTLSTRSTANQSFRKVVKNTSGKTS
Text: as §1

| SMILES | Ki [1] [nM] | Ki [2] [nM] | Ki [3] [nM] | Ki [4] [nM] |
| --- | --- | --- | --- | --- |
| O=C(Cc1ccccc1)N(c1nc(-c2c[nH]c3ncccc23)cs1)C1CC1 [I-20] | 500 to 5000 | < 500 | < 500 |  |
| O=C(Cc1ccc(F)cc1)N(c1nc(-c2c[nH]c3ncccc23)cs1)C1CC1 [II-53] | 500 to 5000 | < 500 | < 500 |  |
| O=C(CCc1ccccc1)N(c1nc(-c2c[nH]c3ncccc23)cs1)C1CC1 [II-54] | 500 to 5000 | < 500 | < 500 |  |
| COc1cccc(CC(=O)Nc2nc(-c3c[nH]c4ncc(Cl)cc34)cs2)c1 [II-103] |  | < 500 | < 500 |  |
| CS(=O)(=O)Nc1cccc(CNC(=O)c2cc(-c3c[nH]c4ncccc34)cs2)c1 [II-106] |  | < 500 | < 500 |  |
| COc1cccc(CNC(=O)c2csc(-c3c[nH]c4ncccc34)c2)c1 [II-114] |  | < 500 | < 500 | < 500 |
| CS(=O)(=O)Nc1cccc(CNC(=O)c2ccc(-c3c[nH]c4ncccc34)s2)c1 [II-115] |  | < 500 | < 500 | < 500 |
| N#CCC(=O)Nc1nc(-c2c[nH]c3ncccc23)cs1 [II-116] |  | < 500 | < 500 | < 500 |
| CS(=O)(=O)Nc1cccc(CNC(=O)c2csc(-c3c[nH]c4ncccc34)c2)c1 [II-117] |  | < 500 | < 500 | < 500 |
| COc1cccc(CC(=O)Nc2nc(-c3c[nH]c4ncc(F)cc34)cs2)c1 [II-119] |  | < 500 | < 500 | < 500 |
| O=C(Cc1ccc(F)cc1F)Nc1nc(-c2c[nH]c3ncc(F)cc23)cs1 [II-122] |  | < 500 | < 500 | < 500 |
| COc1cccc(CC(=O)Nc2ccc(-c3c[nH]c4ncccc34)s2)c1 [II-127] |  | < 500 | < 500 | < 500 |
| CS(=O)(=O)Nc1cccc(CC(=O)Nc2ccc(-c3c[nH]c4ncccc34)s2)c1 [II-128] |  | < 500 | < 500 | < 500 |
| CC(C)C(=O)Nc1nc(-c2c[nH]c3ncccc23)cs1 [II-162] | 500 to 5000 | 500 to 5000 |  | < 500 |
| O=C(NCC1CCNCC1)c1nc(-c2c[nH]c3ncc(-c4ccccc4)cc23)cs1 [II-245] | 500 to 5000 | 500 to 5000 |  | < 500 |
| O=C(Nc1nc(-c2c[nH]c3ncc(Br)cc23)cs1)C1Cc2ccccc2C1 [II-246] | 500 to 5000 | 500 to 5000 |  | < 500 |
| O=C(Nc1nc(-c2c[nH]c3ncc(Br)cc23)cs1)C1CC1 [II-247] | 500 to 5000 | 500 to 5000 |  | < 500 |
| O=C(CC1CCCC1)Nc1nc(-c2c[nH]c3ncc(Br)cc23)cs1 [II-248] | 500 to 5000 | < 500 |  | 500 to 5000 |
| O=C(CCc1ccccc1)Nc1nc(-c2c[nH]c3ncc(Br)cc23)cs1 [II-249] | 500 to 5000 | 500 to 5000 |  | < 500 |
| O=C(Cc1ccc(Br)cc1)Nc1nc(-c2c[nH]c3ncc(Br)cc23)cs1 [II-250] | 500 to 5000 | < 500 |  |  |
| O=C(CCC1CCCCC1)Nc1nc(-c2c[nH]c3ncc(Br)cc23)cs1 [II-251] | 500 to 5000 | < 500 |  | 500 to 5000 |
| O=C(Nc1nc(-c2c[nH]c3ncc(Br)cc23)cs1)C1CCOC1 (stereo not drawn) [II-252] | 500 to 5000 | 500 to 5000 |  | < 500 |
| O=C(CCOc1ccccc1)Nc1nc(-c2c[nH]c3ncc(Br)cc23)cs1 [II-254] | 500 to 5000 | 500 to 5000 |  | < 500 |
| O=C(CCNC(=O)OCc1ccccc1)Nc1nc(-c2c[nH]c3ncc(Br)cc23)cs1 [II-255] | 500 to 5000 | 500 to 5000 |  |  |
| CCN(C(=O)CC1CCCC1)c1nc(-c2c[nH]c3ncc(Br)cc23)cs1 [II-256] | 500 to 5000 |  |  |  |

Continued, values first:

| Ki [1] [nM] | Ki [2] [nM] | Ki [3] [nM] | Ki [4] [nM] | SMILES |
| --- | --- | --- | --- | --- |
| 500 to 5000 | < 500 |  |  | O=C(Cc1ccccc1)Nc1nc(-c2c[nH]c3ncccc23)cs1 [I-1] |
|  | < 500 | < 500 | < 500 | CN1CCN(S(=O)(=O)c2cccc(CC(=O)Nc3nc(-c4c[nH]c5ncccc45)cs3)c2)CC1 [II-51] |
|  | 500 to 5000 | < 500 |  | Cc1sc(NC(=O)Cc2cccc(NS(C)(=O)=O)c2)nc1-c1c[nH]c2ncccc12 [II-100] |
|  | 500 to 5000 | 500 to 5000 |  | Cc1sc(NC(=O)Cc2cccc(S(=O)(=O)N3CCOCC3)c2)nc1-c1c[nH]c2ncccc12 [II-101] |
|  | < 500 | < 500 |  | O=C(Cc1ccccc1)Nc1nc(-c2c[nH]c3ncc(Cl)cc23)cs1 [II-102] |
|  | 500 to 5000 | < 500 |  | CS(=O)(=O)Nc1cccc(CC(=O)Nc2nc(-c3c[nH]c4ncc(Cl)cc34)cs2)c1 [II-104] |
|  | 500 to 5000 | < 500 |  | O=C(Cc1cccc(S(=O)(=O)N2CCOCC2)c1)Nc1nc(-c2c[nH]c3ncc(Cl)cc23)cs1 [II-105] |
|  | 500 to 5000 | < 500 |  | O=C(Cc1cccc(S(=O)(=O)N2CCOCC2)c1)Nc1nc(-c2c[nH]c3ncc(Br)cc23)cs1 [II-107] |
|  | 500 to 5000 | < 500 | < 500 | O=C(Cc1ccc(OCCN2CCNCC2)cc1Cl)Nc1nc(-c2c[nH]c3ncccc23)cs1 [II-108] |
|  | 500 to 5000 | < 500 | < 500 | CN1CCN(CCOc2ccc(CC(=O)Nc3nc(-c4c[nH]c5ncccc45)cs3)c(Cl)c2)CC1 [II-109] |
|  | 500 to 5000 | < 500 | < 500 | O=C(Cc1ccc(OCCCN2CCNCC2)cc1Cl)Nc1nc(-c2c[nH]c3ncccc23)cs1 [II-110] |
|  | 500 to 5000 | < 500 | < 500 | CN1CCN(CCCOc2ccc(CC(=O)Nc3nc(-c4c[nH]c5ncccc45)cs3)c(Cl)c2)CC1 [II-111] |
|  | 500 to 5000 | < 500 |  | O=C(Cc1cccc(S(=O)(=O)N2CCCCC2)c1)Nc1nc(-c2c[nH]c3ncccc23)cs1 [II-112] |
|  | < 500 | < 500 |  | CN(c1cccc(CC(=O)Nc2nc(-c3c[nH]c4ncccc34)cs2)c1)S(C)(=O)=O [II-113] |
|  | < 500 | < 500 | < 500 | O=C(Cc1ccccc1)Nc1nc(-c2c[nH]c3ncc(F)cc23)cs1 [II-118] |
|  | < 500 | < 500 | < 500 | CS(=O)(=O)Nc1cccc(CC(=O)Nc2nc(-c3c[nH]c4ncc(F)cc34)cs2)c1 [II-120] |
|  | 500 to 5000 | < 500 | < 500 | O=C(Cc1cccc(S(=O)(=O)N2CCOCC2)c1)Nc1nc(-c2c[nH]c3ncc(F)cc23)cs1 [II-121] |
|  | < 500 | < 500 | < 500 | O=C(Cc1cccc(S(=O)(=O)NCCCN2CCNCC2)c1)Nc1nc(-c2c[nH]c3ncccc23)cs1 [II-123] |
|  | < 500 | < 500 | < 500 | O=C(Cc1cccc(S(=O)(=O)N2CCC(O)C2)c1)Nc1nc(-c2c[nH]c3ncccc23)cs1 (stereo not drawn) [II-124] |
|  | < 500 | < 500 | < 500 | CN1CCN(CCCNS(=O)(=O)c2cccc(CC(=O)Nc3nc(-c4c[nH]c5ncccc45)cs3)c2)CC1 [II-125] |
|  | < 500 | < 500 | < 500 | O=C(Cc1cccc(S(=O)(=O)NCCCN2CCOCC2)c1)Nc1nc(-c2c[nH]c3ncccc23)cs1 [II-126] |
|  | 500 to 5000 | < 500 | < 500 | O=C(Cc1cccc(S(=O)(=O)N2CCOCC2)c1)Nc1ccc(-c2c[nH]c3ncccc23)s1 [II-129] |
| 500 to 5000 | < 500 |  | 500 to 5000 | O=C(CCS(=O)(=O)c1ccccc1)Nc1nc(-c2c[nH]c3ncc(Br)cc23)cs1 [II-253] |
